Data published in patent US6806230B1, “Pyrimidine derivatives and herbicides containing them” (Kumiai Chemical Industry Co., Ltd., priority 1999, dated 2004).

How the values were obtained:
Assay type in all cases: in vivo
barnyard grass (Ec) [1] = assay: Test Example 3: herbicidal effects by foliage treatment in upland field; design: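 0-5 growth inhibition grade; 5 = over 90%; 4 = 70-90%; 3 = 50-70%; 2 = 30-50%; 1 = 10-30%; 0 = under 10%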; settings: dose 100 g active ingredient per 10 ares, examined on the 14th day after treatment
Procedure: In a 80 cm^2 plastic pot, upland soil was filled, and seeds of barnyard grass (Ec) and green foxtail (Se) were sown and cultured in a green house for 2 weeks. Then, a wettable powder prepared in accordance with Formulation Example 1 was diluted with water and applied to the entire foliage from above the plants by means of a small size spray at a rate of 100 l per 10 ares so that the dose of the active ingredient would be 100 g per 10 ares. Thereafter, cultivation was carried out in a green house, and on the 14th day after the treatment, the herbicidal effects were examined in accordance with the standards of Table 44.

barnyard grass (Eo) [2] = assay: Test Example 1: herbicidal effects by flooded paddy field treatment; design: herbicidal effects, Eo (barnyard grass):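 0-5 growth inhibition grade; 5 = over 90%; 4 = 70-90%; 3 = 50-70%; 2 = 30-50%; 1 = 10-30%; 0 = under 10%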; settings: for herbicidal effects, Eo (barnyard grass): dose 100 g active ingredient per 10 ares, examined on the 21st day after treatment, standards of Table 44;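 on Herbicidal effect index, Eo: 0-5 growth inhibition grade; 5 = over 90%; 4 = 70-90%; 3 = 50-70%; 2 = 30-50%; 1 = 10-30%; 0 = under 10%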
In short: (§1)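 Puddled paddy soil in pots, seeds sown, 3 cm flood. Day after sowing: wettable powder diluted in water, applied dropwise to water surface, 100 g a.i./10 ares. Greenhouse; visual herbicidal rating at day 21 post-treatment.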

rice (Or) = assay: Test Example 4: selectivity for a crop plant by flooded paddy field treatment; design: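 0-5 phytotoxicity grade; 5 = over 90%; 4 = 70-90%; 3 = 50-70%; 2 = 30-50%; 1 = 10-30%; 0 = under 10%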; settings: rice transplanted at second leaf stage, dose 25 gai/10a, 21st day after treatment, index per Table 44
In short: (§2)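 Flooded paddy pots, 3 cm water; weeds sown from seed, rice transplanted at 2nd-leaf stage. Day after: wettable powder diluted in water, applied dropwise to water surface, 25 g a.i./10 a. Greenhouse; herbicidal effect rated at day 21.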

barnyard grass (Eo) [3] = assay: as above; design: scale not given here; settings: barnyard grass, dose 25 gai/10a, 21st day after treatment, index per Table 44
In short: as §2

monochoria (Mo) [4] = assay: as above; design: scale not given here; settings: monochoria, dose 25 gai/10a, 21st day after treatment, index per Table 44
In short: as §2

barnyard grass (Ec) [5] = assay: Test Example 2: herbicidal effects by upland soil treatment; design: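 0-5 growth inhibition grade; 5 = over 90%; 4 = 70-90%; 3 = 50-70%; 2 = 30-50%; 1 = 10-30%; 0 = under 10%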; settings: dose 100 g active ingredient per 10 ares, examined on the 21st day after treatment
In short: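 Pre-emergence test: barnyard grass and green foxtail sown in upland soil, then soil surface sprayed with wettable-powder formulation at 100 g active ingredient per 10 ares (100 l per 10 ares). Grown in greenhouse; herbicidal effect scored on a rating scale 21 days after treatment.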

monochoria (Mo) [6] = assay: Test Example 1: herbicidal effects by flooded paddy field treatment; design: herbicidal effects, Mo (monochoria):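 0-5 growth inhibition grade; 5 = over 90%; 4 = 70-90%; 3 = 50-70%; 2 = 30-50%; 1 = 10-30%; 0 = under 10%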; settings: for herbicidal effects, Mo (monochoria): dose 100 g active ingredient per 10 ares, examined on the 21st day after treatment, standards of Table 44;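 on Herbicidal effect index, Mo: 0-5 growth inhibition grade; 5 = over 90%; 4 = 70-90%; 3 = 50-70%; 2 = 30-50%; 1 = 10-30%; 0 = under 10%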
In short: as §1

[7] = dose 100 gai/10a, examined on 21st day after treatment, index 0-5 per Table 44

| SMILES | Ec (herbicidal effects, index) (barnyard grass (Ec) [1]) | herbicidal effects, Eo (barnyard grass) (barnyard grass (Eo) [2]) | Or (herbicidal effect index on crop) (rice (Or)) | Eo (herbicidal effect index) (barnyard grass (Eo) [3]) | Mo (herbicidal effect index) (monochoria (Mo) [4]) | Ec (herbicidal effects, index) (barnyard grass (Ec) [5]) | herbicidal effects, Mo (monochoria) (monochoria (Mo) [6]) | Herbicidal effect index, Eo (barnyard grass (Eo) [2]; [7]) | Herbicidal effect index, Mo (monochoria (Mo) [6]; [7]) |
| --- | --- | --- | --- | --- | --- | --- | --- | --- | --- |
| CCCC(c1cncnc1C(C)C)N(C)C(=O)Cc1ccc(C)cc1 (racemic) [1-452] | 4 | 5 | 0 | 5 | 5 | 5 | 5 |  |  |
| CCCc1ncncc1C(CCC)N(C)C(=O)Cc1ccc(Cl)cc1 (racemic) [1-494] | 5 | 5 | 1 | 5 | 5 | 5 | 5 |  |  |
| CCCc1ncncc1C(CCC)N(C)C(=O)Cc1ccc(F)cc1 (racemic) [1-493] | 4 | 5 | 1 | 5 | 5 | 5 | 5 |  |  |
| CN(C(=O)Cc1ccccc1)C(c1ccc(Cl)cc1)c1cncnc1C(F)(F)F (racemic) [1-221] | 4 | 5 | 1 | 5 | 5 |  | 5 |  |  |
| CCOCN(C(=O)Cc1ccc(C)cc1)C(c1cncnc1C(F)(F)F)C(C)C (racemic) [Compound 1-107] | 4 |  | 0 | 5 | 5 |  |  | 5 | 5 |
| COc1ccc(C(c2cncnc2C(F)(F)F)N(C)C(=O)Cc2ccc(Cl)cc2)cc1 (racemic) [1-486] | 4 | 5 | 1 | 5 | 5 |  | 5 |  |  |
| COc1ccccc1C(c1cncnc1C(F)(F)F)N(C)C(=O)Cc1ccccc1 (racemic) [1-488] | 5 | 5 |  |  |  | 5 | 5 |  |  |
| C#CCN(C(=O)Cc1ccc(Cl)cc1)C(c1cncnc1CC)C(C)C (racemic) [1-560] | 4 | 5 |  |  |  | 5 | 5 |  |  |
| CN(C(=O)Cc1ccc(F)cc1)C(c1cncnc1C(F)(F)F)C1(C)CC1 (racemic) [1-410] | 4 | 5 |  |  |  | 5 | 5 |  |  |
| CCC(C)C(c1cncnc1C(F)(F)F)N(C)C(=O)Cc1ccsc1 (mixture of isomers) [2-12] | 5 | 5 |  |  |  | 5 | 5 |  |  |
| Cc1ccc(C(C)C(=O)N(C)C(c2cncnc2C(F)(F)F)C(C)C)s1 (mixture of isomers) [2-60] | 4 | 5 |  |  |  | 5 | 5 |  |  |
| Cc1ccc(CC(=O)N(C)C(CC(C)C)c2cncnc2C(F)(F)F)s1 (racemic) [2-53] | 4 | 5 |  |  |  | 5 | 5 |  |  |
| CON(C(=O)Cc1ccc(Cl)cc1)C(c1cncnc1C(F)(F)F)C(C)C (racemic) [1-407] | 4 | 5 |  |  |  | 5 | 5 |  |  |
| CON=C(C)C(c1cncnc1C(C)C)N(C)C(=O)Cc1ccc(F)cc1 (racemic) [1-563] | 5 | 5 |  |  |  | 5 | 5 |  |  |
| CC(C)c1ncncc1C(C(C)C)N(C)C(=O)Cc1cccs1 (racemic) [2-23] | 4 | 5 |  |  |  | 5 | 5 |  |  |
| CC(C(=O)N(C)C(c1cncnc1C(F)(F)F)C(C)C)c1ccc(Br)s1 (mixture of isomers) [2-61] | 4 | 5 |  |  |  | 5 | 5 |  |  |
| COCc1ncncc1C(C(C)C)N(C)C(=O)Cc1ccc(Cl)cc1 (racemic) [1-589] | 4 | 5 |  |  |  | 5 | 5 |  |  |
| CC(C(=O)N(C)C(c1cncnc1C(F)(F)F)C(C)C)c1cccs1 (mixture of isomers) [2-62] | 4 | 5 |  |  |  | 5 | 5 |  |  |
| CON=Cc1ncncc1C(C(C)C)N(C)C(=O)Cc1ccc(F)cc1 (racemic) [1-497] | 4 | 5 |  |  |  | 5 | 5 |  |  |
| CON=CC(c1cncnc1C(C)C)N(C)C(=O)Cc1ccc(Cl)cc1 (racemic) [1-464] | 4 | 5 |  |  |  | 5 | 5 |  |  |
| CCCC(c1cncnc1C(C)C)N(C)C(=O)Cc1ccccc1 (racemic) [1-449] | 4 | 5 |  |  |  | 5 | 5 |  |  |
| CC(C)C(c1cncnc1C(F)(F)F)N(C)C(=O)COc1cc(C(F)(F)F)nn1C (racemic) [2-46] | 4 | 5 |  |  |  | 5 | 5 |  |  |
| CN(C(=O)Cc1ccccc1)C(c1ccccc1F)c1cncnc1C(F)(F)F (racemic) [1-546] | 4 | 5 |  |  |  | 5 | 5 |  |  |
| CCc1ncncc1C(C(C)C)N(C)C(=O)Cc1ccccc1 (racemic) [1-432] | 5 | 5 |  |  |  | 5 | 5 |  |  |
| CCC(C)C(c1cncnc1C(F)(F)F)N(C)C(=O)Cc1cccc(F)c1 (mixture of isomers) [Compound 1-267] | 4 | 5 |  |  |  | 5 | 5 |  |  |
